The values below come from US5591615A, “Mutant of Geotrichum candidum which produces novel enzyme system to selectively hydrolyze triglycerides” (priority 1995, dated 1997).

The subject of experiment [1] is Geotrichum candidum mutant 9-2. The experiment in a line: UNLipase production by mutant in culture medium. In kind it is cell-based. The procedure: It was determined early in our work that having fat or oil in the medium induced other lipases produced by Geotrichum strains. Thus fat or oil was eliminated from the medium. Then improvements for Bacto-Peptone were sought. A series of peptones or other organic nitrogen sources were tested including soy peptone, trypticase® (BBL) peptone, casamino acids, NZ amine® (Sheffield Products) and casein.
Next, the salt constituents were examined in the standard medium. […] The inclusion of these two salts in the medium gave a doubling of measured hydrolyric activity when assayed using the standard assay. […] Fifty mls of this medium are placed in 500 ml baffled flasks (Bellco) then shaken at 250 rpms at 25°-30° C.
The next goal was to find a mutant with enhanced productivity. Thus the mutagenesis of mutant 9-2 was undertaken as described above but the selection protocol was altered. In this case, after the 8° C. recovery period the mutant suspensions were placed in 50 ml sterile test tubes and frozen at -55° C. The period of freezing was then interrupted by thawing periods (about 4 hours) and followed by freezing at -55° C. Mutants were screened for lipase activity and selectivity. One mutant, 9-2-3-9, survived a cycle of 3 weeks of freezing which had been interrupted by 3 thaw cycles. The mutant 9-2-3-9 was distinctly different from its parent (9-2) in its colony morphology when grown on nutrient agar. The colony type was much more aerial than 9-2.
The mutant 9-2 was grown in the medium described above. Fifty mls were added to 500 ml baffled flasks (Bellco) and placed on a shaker maintained at 30° C. and shaken at 250 rpms. Production reaches a peak at about 30 hours, then declines slightly and remains low. The enzyme was harvested at 30 hours for a series of hydrolyric tests. The collection of the enzyme involves centrifugation of the broth at 5000 rpms in the Beckman GSA rotor for 10 minutes. The cell free broth was then decanted from the cell pellet. In some cases, high activity suspension were produced by a 70% ammonium sulfate precipitation of the broth.

The subject of experiment [2] is UNLipase. Nature of the experiment: Esterification of fatty acid mixture from pressure-split beef tallow (PFA). The format is biochemical, Geotrichum candidum. The conditions noted are these: HPLC or GC; pentadecanoic acid internal standard. As for the experimental part: The esterification of fatty acid mixtures was evaluated using typical fatty acid mixtures derived from pressure-split beef tallow, henceforth referred to as PFA. Samples of PFA were spiked with pentadecanoic acid as an internal standard. The resulting products were analyses by either HPLC (reverse phase C-18 column) or GC (FFAP capillary column).

Experiment [3] has as its system UNLipase. Nature of the experiment: Fatty acid selectivity of lipase esterification. In kind it is biochemical, Geotrichum candidum. As for the experimental part: These preparations contained 50-200 mg of fatty acid, 0.5 ml concentrated broth, 0.5 ml water (buffer) and 100-300 ul of alcohol. Reactions were run at either 27, 30 or 37 degrees Celsius for 16 to 24 hours. The reaction was stopped by adding 2.0 ml ether.
Fatty acid and ester were extracted into ether and evaluated by thin layer chromatography. The esterification of oleic acid with various alcohols is present in Table 1.
The fatty acid selectivity of the lipase in esterification reactions was also evaluated in the manner described above, with results analyzed by thin layer chromatography, GC, HPLC and IR.

The subject of experiment [4] is UNLipase. Nature of the experiment: Effect of metal ions on UNLipase. In kind it is biochemical, Geotrichum candidum. The conditions noted are these: 25 mM concentration.
For experiment [5], the system named is UNLipase. The experiment in a line: Hydrolysis of simple (methyl) esters with UNLipase. In kind it is biochemical, Geotrichum candidum. The conditions noted are these: about 50 mM in isooctane, 37 degrees C, 4 hours. The text has this: Simple esters were subjected to UNLipase to determine the scope and extent of UNLipase selectivity. The esters evaluated were methyl esters of propionic, caprylic, nonanoic, caproic, palmitic and oleic acids. […] Approximately 2% of the methyl palmitate reacted, whereas 67% of the methyl oleate was hydrolyzed.

A further experiment relates to G. candidum lipase. The conditions noted are these: cited from earlier work.
In experiment [6] the test system is UNLipase. The experiment in a line: Hydrolysis of pure triglycerides with UNLipase. In kind it is biochemical, Geotrichum candidum. The conditions noted are these: 1 hour at 37 degrees C; for ratio of hydrolysis for triolein:tripalmitolein:trilinolein: pure triglyceride in isooctane, relative to triolein 100. The procedure:
The Enzyme was harvested using centrifugation at 5000 rpms, for example, in a Beckman GSA rotor for 10 minutes. This cell-free preparation was used to determine hydrolysis, esterification and transesterification properties.
Substrates were prepared in isooctane (2,2,4-trimethylpentane) at about 0.8 grams per 20 ml solvent. Assay procedures for determining lipase activity were those described by Kwon, D. Y. and Rhee, J. S., J. Amer. Oil Chem Soc. 63:89-92(1986). One modification was to perform some assays for one hour under nonagitated conditions to avoid difficulties in reproducing agitation rates.
Hydrolysis was greatest for triolein, with the ratio of hydrolysis for triolein: tripalmitolein:trilinolein of 100:65:82. […] The ratio of hydrolysis of triolein to tripalmitin was approximately 33:1.

The mark [7] stands for this setting: added to culture medium of mutant 9-2.

The structures appear in SMILES notation.

Take `OC[C@H]1O[C@H](O[C@H]2[C@H](O)[C@@H](O)C(O)O[C@@H]2CO)[C@H](O)[C@@H](O)[C@@H]1O` (mixture of isomers) [maltose]: the “effect on UNLipase production” value in experiment [1] (setting [7]) is “no effect”. Consider `O=P([O-])(O)O.[K+]` [KH2 PO4], for which the “effect on UNLipase production” value in experiment [1] (setting [7]) is on record as “benefit”.

On to `CCCCC/C=C\C/C=C\CCCCCCCC(=O)O` [Linoleic], for which the “ester formation in PFA mixture” value in the experiment on UNLipase [2] is “detected”. Regarding `O=S(=O)([O-])[O-].[Mg+2]` [MgSO4], the “effect on UNLipase production” value is recorded as “no further enhancement” in experiment [1] (MgSO4 concentration increased to 0.5%) and “benefit” in experiment [1] (setting [7]).

Turning to `CCCCCCCC/C=C\CCCCCCCC(=O)O` [Oleic, oleic acid], the “ester formation in PFA mixture” value in the experiment with UNLipase [2] is “detected”. The same measure, in the same setting: under `CCCCCC/C=C\CCCCCCCC(=O)O` [Palmitoleic] stands “detected”.

`CCCCCCCCCCCCCCCCCC(=O)O` [Stearic]: the “ester formation in PFA mixture” value with UNLipase [2] is “not esterified”.

In the case of `C=CCCCCCCCCC(=O)O` [Undecenoic acid, 10-undecenoic acid], the “effect on esterification of oleic acid” value in the experiment with UNLipase [3] is “inhibitor”. On to `[Ca+2]` [calcium ions], for which the “effect on UNLipase production” value in experiment [1] (setting [7]) is on record as “did not enhance”. The “effect on UNLipase” value in the experiment on UNLipase [4] was “inhibited”.

In the case of `O=C(CO)[C@@H](O)[C@H](O)[C@H](O)CO` [fructose], the “effect on UNLipase production” value in experiment [1] (setting [7]) was “inhibited”. The same measure, in the same setting: to `O=C[C@H](O)[C@@H](O)[C@H](O)[C@H](O)CO` [glucose] belongs “inhibited”. Consider `[Mg+2]` [magnesium ions], for which, in the experiment with UNLipase [4], the “effect on UNLipase” value was “activated”. As for `OC[C@@H](O)[C@@H](O)[C@H](O)[C@H](O)CO` [mannitol], in experiment [1] (setting [7]), the “effect on UNLipase production” value was “no effect”. In the case of `CCCCCCCC(=O)OC` [methyl ester of caprylic acid], the “hydrolysis by UNLipase” value in the experiment on UNLipase [5] is recorded as “not hydrolyzed”. The same measure, in the same setting: under `CCCCCCCCC(=O)OC` [methyl ester of nonanoic acid] stands “not hydrolyzed”. With `CCC(=O)OC` [methyl ester of propionic acid], in the experiment with UNLipase [5], the “hydrolysis by UNLipase” value is reported as “not hydrolyzed”.

In turn, `CCCCCCCC/C=C\CCCCCCCC(=O)OC` [methyl oleate] had a methyl ester hydrolyzed in the experiment on UNLipase [5] of 67%. In addition, the “hydrolytic rate relative to palmitic methyl ester” value in the experiment with G. candidum lipase is listed as 10 times. Regarding `CCCCCCCCCCCCCCCC(=O)OC` [methyl palmitate], in the experiment on UNLipase [5], the methyl ester hydrolyzed entry is on record as “Approximately 2%”.

For `CCCCCCCCCCCCCC(=O)O` [myristic], the “ester formation in PFA mixture” value in the experiment on UNLipase [2] was “not esterified”. Consider `CCCCCCCCCCCCCCCC(=O)O` [palmitic], for which, in the experiment with UNLipase [2], the “ester formation in PFA mixture” value is reported as “not esterified”. Still for that read-out and setting: to `CCCCCCCCCCCCCCC(=O)O` [pentadecanoic acid] belongs “not esterified”. On to `OC[C@H]1O[C@@](CO)(O[C@H]2O[C@H](CO)[C@@H](O)[C@H](O)[C@H]2O)[C@@H](O)[C@@H]1O` [sucrose], for which the “effect on UNLipase production” value in experiment [1] (setting [7]) is reported as “inhibited”. In the case of `CCCCC/C=C\C/C=C\CCCCCCCC(=O)OCC(COC(=O)CCCCCCC/C=C\C/C=C\CCCCC)OC(=O)CCCCCCC/C=C\C/C=C\CCCCC` [trilinolein], in the experiment with UNLipase [6], the “ratio of hydrolysis for triolein:tripalmitolein:trilinolein” value was found to be 82. The same measure, in the same setting: to `CCCCCCCC/C=C\CCCCCCCC(=O)OCC(COC(=O)CCCCCCC/C=C\CCCCCCCC)OC(=O)CCCCCCC/C=C\CCCCCCCC` [triolein] belongs 100. Regarding `CCCCCCCCCCCCCCCC(=O)OCC(COC(=O)CCCCCCCCCCCCCCC)OC(=O)CCCCCCCCCCCCCCC` [tripalmitin], in the experiment on UNLipase [6] (saturated fatty acid triglycerides), the “reactivity with UNLipase” value is given as “showed any reactivity”. Regarding `CCCCCC/C=C\CCCCCCCC(=O)OCC(COC(=O)CCCCCCC/C=C\CCCCCC)OC(=O)CCCCCCC/C=C\CCCCCC` [tripalmitolein], in the experiment with UNLipase [6], the “ratio of hydrolysis for triolein:tripalmitolein:trilinolein” value is on record as 65.
